Laboratory results as given in article PMC4393083, “Antiviral Activity and Possible Mechanism of Action of Constituents Identified in Paeonia lactiflora Root toward Human Rhinoviruses” (PLoS ONE, 2015).
Where two headings read alike, the source gives them in different places.

What was measured:
HRV-2 [1] = assay: Cytopathic effect inhibition assay (MTT), HRV-2 in HeLa cells; assay type: cell-based, human rhinovirus; conditions: read-out: IC50 (95% CL) HRV-2
Method: (§1) Monolayers of HeLa and MRC5 cells were seeded onto a 96-well culture plate as stated previously. Subsequently, 90 μL media containing several different concentrations (1–1000 μg/mL) of each test material in DMSO was put into the wells, and then 10 μL of 10×TCID50 of the virus stock was added to produce an appropriate CPE within 2 days after infection. Ribavirin served as a reference control and was similarly prepared. Negative controls consisted of the DMSO solution. Viral inhibition rate (VIR) (%) was calculated according to the formula [21], VIR = (A tV—A cV)/(A cd—A cV) × 100, where A tV is the optical density measured with a given concentration of the test compound in HRV infected cells; A cV is the optical density measured for the control untreated HRV infected cells; A cd is the optical density measured for the control untreated HRV uninfected cells.
(§2) The CC50 and IC50 values were determined using GraphPad Prism 5 software program (GraphPad Software, La Jolla, CA). […] The selectivity index (SI) was determined as the ratio of CC50 to IC50 [23]. All data represent the mean ± SD of duplicate or triplicate samples of three independent experiments. Statistical analyses were carried out using SAS 9.13 program (SAS Institute, Cary, NC). Data from two groups were analyzed by a Student’s t-test, and multiple groups were analyzed by a one-way analysis of variance and Bonferroni multiple comparison post-test.

HRV-4 [2] = assay: Cytopathic effect inhibition assay (MTT), HRV-4 in MRC5 cells; assay type: cell-based, human rhinovirus; conditions: HRV-4 in MRC5 cells
Method: as §1, §2

[3] = Cytotoxicity MTT assay in HeLa cells; assay type: cell-based; conditions: human, tetrazolium assay, read-out: CC50 (95% CL)
Method: (§3) The cytotoxicity of the test materials to two human cell lines was evaluated using an MTT assay described previously by Morgan. In brief, a 10× stock solution of MTT was prepared by adding 5 mg/mL MTT in phosphate-buffered saline (PBS) (pH 7.4). The stock solution was sterile-filtered and stored at −20°C. HeLa and MRC5 cells were seeded onto 96-well culture plates at a density of 3 × 10^4 cells per well for 1 day. The culture medium was removed and the plates with monolayer cells were replaced with media containing several different concentrations (1–1000 μg/mL) of the test materials in dimethylsulfoxide (DMSO). After incubation at 37°C and 5% CO2 for 2 days, the culture plates were then washed once with 200 μL PBS. A volume of 100 μL medium containing 0.05% MTT were added to each well and then incubated for 4 h at the same condition. After then, MTT solution was removed and 150 μL DMSO was added to each well. Finally, the plate was shaken for 15 min to dissolve the purple formazan crystals that had formed. Absorbance was read at 560 nm by using a VersaMax microplate reader (Molecular Devices, Sunnyvale, CA) with a reference absorbance at 670 nm.
as §2, with “Statistical analyses were carried out using SAS 9.13 program (SAS Institute, Cary, NC).” left out

HRV-2 [4] = assay: Cytopathic effect inhibition assay (MTT), HRV-2 in MRC5 cells; assay type: cell-based, human rhinovirus; conditions: HRV-2 in MRC5 cells
Method: as §1, §2

[5] = system: two HRVs (HRV-2 and HRV-4); assay: Cytopathic effect inhibition assay, summary over both serotypes; assay type: cell-based, human rhinovirus; conditions: Rhinovirus A; range over HRV-2 and HRV-4, HeLa and MRC5 cells; read-out: IC50 toward two HRVs (range)
Method: as §1, §2

[6] = Cytotoxicity MTT assay in MRC5 cells; assay type: cell-based, human; conditions: human, tetrazolium assay, read-out: CC50 (95% CL)
Method: as §3
as §2, with “Statistical analyses were carried out using SAS 9.13 program (SAS Institute, Cary, NC).” left out

MRC5 cells = assay: Cytotoxicity MTT assay in MRC5 cells; assay type: cell-based, human
Method: as §3
as §2, with “Statistical analyses were carried out using SAS 9.13 program (SAS Institute, Cary, NC).” left out

HRV = conditions: read-out: IC50 (anti-HRV); cited from earlier work
HRV-4 [7] = assay: Cytopathic effect inhibition assay (MTT), HRV-4 in HeLa cells; assay type: cell-based, human rhinovirus; conditions: Human rhinovirus sp., HRV4, HeLa, read-out: IC50 (95% CL) HRV-4
Method: Extraction procedures of air-dried root of P. lactiflora were performed as described previously by Ngan et al.. For isolation of active principles, viral CPE inhibition assay toward HRV-4 in HeLa cell was used. […]. Column fractions were monitored by TLC on silica gel plates developed with chloroform and methanol (7:3 by volume) mobile phase. Fractions with similar R f values on the TLC plates were pooled. Active fractions 4 to 5 (EI, 2.44 g) and 7 (EII, 0.569 g) were obtained. The active fraction EI was rechromatographed on a silica gel column by elution with chloroform and methanol (70:30 by volume) to give nine fractions (each about 450 mL). A preparative HPLC was used for separation of constituents from the active fractions 3 to 5 (0.176 g). The column was a 4.6 mm i.d. × 150 mm Eclipse XDB-C18 (Agilent, Santa Clara, CA) using a mobile phase of methanol and water (3:7 by volume) at a flow rate of 0.5 mL/min. Chromatographic separations were monitored using a UV detector at 260 nm. […]. The three antiviral principles were characterized as paeonol (PA) (1), gallic acid (GA) (2), and 1,2,3,4,6-penta-O-galloyl-β-D-glucopyranose (PGG) (3) (Fig 1) by spectroscopic analyses, including MS and NMR. PA (1): compound 1 was isolated as an antibacterial principle from P. lactiflora root in our previous work, and the spectral data of compound 1 was largely identical to the published data. GA (2) was identified on the basis of the following evidence: white powder. UV (MeOH): λmax nm = 260. FT-IR: v max cm^–1 = 3491–3063 (OH stretch), 1608 (aromatic C = C). […] The interpretations of proton and carbon signals of compound 2 were largely consistent with those of Sakar et al.. PGG (3): compound 3 was isolated as an antibacterial principle from P. lactiflora root in our previous work, and the spectral data of compound 3 was largely identical to the published data.
as §1, §2

O=C(O)c1cc(O)c(O)c(O)c1 [GA, gallic acid]
IC50 (HRV-2 [1]; Rhinovirus A, HRV2, HeLa): 427 µM
IC50 (HRV-2 [1]): 427 µM
IC50 (95% CL) HRV-4 (HRV-4 [2]): ineffective
CC50 at 2 days [3]: 1500 µM
IC50 (95% CL) HRV-2 (HRV-2 [4]): ineffective
IC50 [5]: 427 to 448 µM
CC50 at 2 days [6]: 218 µM
concentration toxic to cells (MRC5 cells): ≥ 290 µM
IC50 (HRV): ~295 µM
IC50 (HRV-4 [7]): 448 µM

C=C1CC[C@@H](O)C(C)(C)C1CC/C(C)=C/COc1ccc2ccc(=O)oc2c1 (stereo partly drawn) [farnesiferol B]
IC50 (HRV): ~2.61 µM

C[C@@H]1CC[C@]2(C(=O)O)CC[C@]3(C)C(=CC[C@@H]4[C@@]5(C)C[C@@H](O)[C@H](OC(=O)/C=C/c6ccc(O)c(O)c6)C(C)(C)[C@@H]5CC[C@]43C)[C@@H]2[C@]1(C)O (relative stereo) [3-O-trans-caffeoyltormentic acid]
IC50 (HRV): 30.7 µM

C=C1CCC2CC(C(=C)C)C2(C)CCC(C(=C)C(=O)O)CC1CC=C(C)C (stereo not drawn) [raoulic acid]
IC50 (HRV): 0.51 µM

COc1cc2ccc(=O)oc2c(OC)c1OC [6,7,8-trimethoxycoumarin]
IC50 (HRV): 12 µM

COc1cc(O)c2c(=O)c(OC)c(-c3ccc(O)c(OC)c3)oc2c1 [4ʹ,5-dihydroxy-3ʹ,3,7-trimethoxyflavone]
IC50 (HRV): 0.29 µM

COc1cc2c(cc1OC)-c1c(OC)c(OC)cc3c1[C@H](C2)N(C)CC3 [glaucine]
IC50 (HRV): 22 µM

C/C(=C\COc1ccc2ccc(=O)oc2c1)CC[C@@H]1C(C)(C)[C@H]2CC[C@]1(C)O2 [farnesiferol C]
IC50 (HRV): ~2.61 µM

COc1cc2c(c(O)c1OC)c(=O)c1ccccc1n2C [arborinine]
IC50 (HRV): 3.19 µM

O=c1c(-c2ccc(O)c(O)c2)coc2cc(O[C@@H]3O[C@H](CO)[C@@H](O)[C@H](O)[C@H]3O)cc(O)c12 [orobol 7-O-D-glucoside]
IC50 (HRV): 1.29 to 19.6 µM

COc1cc2cc(Oc3ccc4ccc(=O)oc4c3)c(=O)oc2cc1OC [daphnoretin methyl ether]
IC50 (HRV): 97.1 µM

(S)-ribalinine
IC50 (HRV): 83 µM
